Measurements reported in patent publication US20220324835A1 (Nurix Therapeutics, Inc., priority 2018, published 2022).

Assays:
[1] = molecular target: T1, Cbl-b (Homo sapiens, UniProt Q13191); assay: Cbl-b inhibition assay (Cbl-b activity assay, FRET, Biological Example 1; 100 mM NaCl, 60 nM Src kinase); format: biochemical; conditions: upper bound stated in text lists; read-out: IC50 values in the Cbl-b inhibition assay of Biological Example 1
Outline: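 TR-FRET assay using N-terminal biotinylated Avi-tagged Cbl-b bound to streptavidin-terbium, Src kinase for Cbl-b phosphorylation, and UbcH5B irreversibly conjugated to Bodipy-Fluorescein-ubiquitin. Phosphorylated Cbl-b binds UbcH5B-Ub, bringing the fluorophores together; inhibition is read as loss of FRET signal.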

[2] = tested on: T-cell; assay: CD25 cell surface staining on T-cells stimulated with anti-CD3 antibody alone (Biological Example 2); format: cell-based; conditions: 1 μM compound, primary human total T-cells, baseline = anti-CD3/anti-CD28 stimulated cells without inhibitor, read-out: CD25 staining, Anti-CD3 stimulation, fold change over baseline
[3] = tested on: T-cell; assay: CD25 cell surface staining on T-cells co-stimulated with anti-CD3 and anti-CD28 antibody (Biological Example 2); format: cell-based, human; conditions: Homo sapiens, T-cell, primary human total T-cells, baseline = anti-CD3/anti-CD28 stimulated cells without inhibitor, read-out: CD25 staining, Anti-CD3/Anti-CD28 stimulation, fold change over baseline; for fold induction at 0.3 µM: 0.3 μM compound; for fold induction at 1 µM: 1 μM compound
Outline: (§1)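 T-cells were stimulated with anti-CD3 antibody alone or with anti-CD28 antibody, in the presence or absence of Cbl-b inhibitor. IL-2 secretion or CD25 surface staining was measured, and values expressed as fold over the uninhibited baseline […].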

[4] = tested on: T-cell; assay: IL-2 secretion from T-cells stimulated with anti-CD3 antibody alone (Biological Example 2); format: cell-based; conditions: 1 μM compound, primary human total T-cells, read-out: IL-2 secretion, Anti-CD3 stimulation, fold change over baseline
[5] = molecular target: T1, Cbl-b; assay: Cbl-b activity assay (Cbl-b inhibition assay), TR-FRET of Cbl-b interaction with UbcH5B-Ub; format: biochemical; conditions: assay buffer with 100 mM NaCl, 60 nM Src kinase; read-out: Cbl-b activity IC50
Outline: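 UbcH5B (C85K) conjugated to N-terminally Bodipy-Fluorescein-labeled ubiquitin served as the fluorescent partner. After compound preincubation, Src kinase (60 nM) with 1 mM ATP and 5 mM MgCl2 (final) was added for 1.5 h, followed by a further 1 h incubation. Some values were obtained with 50 mM NaCl and 30 nM Src.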

[6] = tested on: T-cell; assay: IL-2 secretion from T-cells co-stimulated with anti-CD3 and anti-CD28 antibody (Biological Example 2); format: cell-based, human; conditions: Homo sapiens, T-cell, primary human total T-cells, baseline = anti-CD3/anti-CD28 stimulated cells without inhibitor, read-out: IL-2 secretion, Anti-CD3/Anti-CD28 stimulation, fold change over baseline; for fold induction at 0.3 µM: 0.3 μM compound; for fold induction at 1 µM: 1 μM compound
Outline: as §1

T1 sequence (Q13191 36-427): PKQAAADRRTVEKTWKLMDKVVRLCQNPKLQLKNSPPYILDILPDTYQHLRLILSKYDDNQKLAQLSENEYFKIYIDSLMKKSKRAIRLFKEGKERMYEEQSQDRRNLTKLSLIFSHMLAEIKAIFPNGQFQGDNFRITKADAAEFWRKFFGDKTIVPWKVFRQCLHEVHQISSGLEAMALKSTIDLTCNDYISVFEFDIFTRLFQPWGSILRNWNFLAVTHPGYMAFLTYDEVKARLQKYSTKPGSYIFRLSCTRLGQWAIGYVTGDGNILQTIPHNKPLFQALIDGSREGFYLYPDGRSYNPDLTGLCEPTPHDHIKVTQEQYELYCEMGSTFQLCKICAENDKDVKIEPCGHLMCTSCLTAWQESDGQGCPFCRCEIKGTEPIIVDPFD

SMILES: Cn1cnnc1CC1(c2cccc(N3Cc4c(cc(CN5CC(F)C5(C)C)cc4C(F)(F)F)C3=O)c2)COC1 (centres unmarked) [Compound 536, 6-((3-fluoro-2,2-dimethylazetidin-1-yl)methyl)-2-(3-(3-((4-methyl-4H-1,2,4-triazol-3-yl)methyl)oxetan-3-yl)phenyl)-4-(trifluoromethyl)isoindolin-1-one]
- IC50 [1]: ≤ 100 nM
- fold induction at 1 µM [2]: > 1
- fold induction at 0.3 µM [3]: 1.31 to 1.5
- fold induction at 1 µM [3]: 1.31 to 1.5
- fold induction at 1 µM [4]: 0.101 to 0.15
- IC50 [5]: < 100 nM
- fold induction at 0.3 µM [6]: 2.51 to 5
- fold induction at 1 µM [6]: 5 to 7.5

SMILES: CC(c1cc(C(=O)Nc2cccc(C3(Cc4nncn4C)COC3)c2)nc(C2CC2)n1)N1CC(F)C1 (centres unmarked) [Compound 538, 2-cyclopropyl-6-(1-(3-fluoroazetidin-1-yl)ethyl)-N-(3-(3-((4-methyl-4H-1,2,4-triazol-3-yl)methyl)oxetan-3-yl)phenyl)pyrimidine-4-carboxamide]
- IC50 [1]: ≤ 100 nM
- fold induction at 1 µM [2]: 0.801 to 1
- fold induction at 0.3 µM [3]: 1.01 to 1.3
- fold induction at 1 µM [3]: 1.31 to 1.5
- fold induction at 1 µM [4]: 0.101 to 0.15
- IC50 [5]: < 100 nM
- fold induction at 0.3 µM [6]: 1.01 to 2.5
- fold induction at 1 µM [6]: 2.51 to 5

SMILES: CC(O)c1cc2c(c(C(F)(F)F)c1)CN(c1cccc(C3(Cc4nncn4C)COC3)c1)C2=O (stereo not drawn) [Compound 540, 6-(l-hydroxyethyl)-2-(3-(3-((4-methyl-4H-1,2,4-triazol-3-yl)methyl)oxetan-3-yl)phenyl)-4-(trifluoromethyl)isoindolin-1-one]
- IC50 [1]: ≤ 100 nM
- fold induction at 1 µM [2]: > 1
- fold induction at 0.3 µM [3]: 1.01 to 1.3
- fold induction at 1 µM [3]: 1.01 to 1.3
- fold induction at 1 µM [4]: 0.151 to 0.2
- IC50 [5]: < 100 nM
- fold induction at 0.3 µM [6]: 1.01 to 2.5
- fold induction at 1 µM [6]: 2.51 to 5

SMILES: C[C@H](c1cc2c(c(C(F)(F)F)c1)CN(c1cccc(C3(Cc4nncn4C)COC3)c1)C2=O)N1C[C@H]2C[C@H]2C1 [Compound 541b, 6-((1R)-1-(3-azabicyclo[3.1.0]hexan-3-yl)ethyl)-2-(3-(3-((4-methyl-4H-1,2,4-triazol-3-yl)methyl)oxetan-3-yl)phenyl)-4-(trifluoromethyl)isoindolin-1-one]
- IC50 [1]: ≤ 100 nM
- fold induction at 1 µM [2]: > 1
- fold induction at 0.3 µM [3]: 1.31 to 1.5
- fold induction at 1 µM [3]: 1.31 to 1.5
- fold induction at 1 µM [4]: > 0.201
- IC50 [5]: < 100 nM
- fold induction at 0.3 µM [6]: > 7.5
- fold induction at 1 µM [6]: > 7.5

SMILES: C[C@@H](c1cc2c(c(C(F)(F)F)c1)CN(c1cccc(C3(Cc4nncn4C)COC3)c1)C2=O)N1CC(C)(F)C1 [Compound 543a, (S)-6-(1-(3-fluoro-3-methylazetidin-1-yl)ethyl)-2-(3-(3-((4-methyl-4H-1,2,4-triazol-3-yl)methyl)oxetan-3-yl)phenyl)-4-(trifluoromethyl)isoindolin-1-one]
- IC50 [1]: ≤ 100 nM
- fold induction at 1 µM [2]: > 1
- fold induction at 0.3 µM [3]: 1.31 to 1.5
- fold induction at 1 µM [3]: 1.51 to 1.75
- fold induction at 1 µM [4]: > 0.201
- IC50 [5]: < 100 nM
- fold induction at 0.3 µM [6]: 2.51 to 5
- fold induction at 1 µM [6]: > 7.5

SMILES: C[C@H](c1cc2c(c(C(F)(F)F)c1)CN(c1cccc(C3(Cc4nncn4C)COC3)c1)C2=O)N1CC(C)(F)C1 [Compound 543b, (R)-6-(1-(3-fluoro-3-methylazetidin-1-yl)ethyl)-2-(3-(3-((4-methyl-4H-1,2,4-triazol-3-yl)methyl)oxetan-3-yl)phenyl)-4-(trifluoromethyl)isoindolin-1-one]
- IC50 [1]: ≤ 100 nM
- fold induction at 1 µM [2]: > 1
- fold induction at 0.3 µM [3]: 1.51 to 1.75
- fold induction at 1 µM [3]: 1.51 to 1.75
- fold induction at 1 µM [4]: > 0.201
- IC50 [5]: < 100 nM
- fold induction at 0.3 µM [6]: 5 to 7.5
- fold induction at 1 µM [6]: > 7.5

SMILES: Cn1cnnc1CC1(c2cccc(N3Cc4c(cc(C(F)(F)C(=O)O)cc4C(F)(F)F)C3=O)c2)COC1 [Example 544, 2,2-difluoro-2-(2-(3-(3-((4-methyl-4H-1,2,4-triazol-3-yl)methyl)oxetan-3-yl)phenyl)-3-oxo-7-(trifluoromethyl)isoindolin-5-yl)acetic acid]
- IC50 [1]: ≤ 1000 nM
- fold induction at 1 µM [2]: 0.601 to 0.8
- fold induction at 0.3 µM [3]: 1.01 to 1.3
- fold induction at 1 µM [3]: 1.01 to 1.3
- fold induction at 1 µM [4]: < 0.05
- IC50 [5]: 301 to 1000 nM
- fold induction at 0.3 µM [6]: 1.01 to 2.5
- fold induction at 1 µM [6]: 1.01 to 2.5

SMILES: CC[C@@H](c1cc2c(c(C(F)(F)F)c1)CN(c1cccc(C3(Cc4nncn4C)COC3)c1)C2=O)N1CC[C@H](F)C1 [Example 545, 6-((S)-1-((S)-3-fluoropyrrolidin-1-yl)propyl)-2-(3-(3-((4-methyl-4H-1,2,4-triazol-3-yl)methyl)oxetan-3-yl)phenyl)-4-(trifluoromethyl)isoindolin-1-one]
- IC50 [1]: ≤ 100 nM
- fold induction at 1 µM [2]: > 1
- fold induction at 0.3 µM [3]: 1.51 to 1.75
- fold induction at 1 µM [3]: 1.51 to 1.75
- fold induction at 1 µM [4]: > 0.201
- IC50 [5]: < 100 nM
- fold induction at 0.3 µM [6]: > 7.5
- fold induction at 1 µM [6]: > 7.5

SMILES: CC[C@H](c1cc2c(c(C(F)(F)F)c1)CN(c1cccc(C3(Cc4nncn4C)COC3)c1)C2=O)N1CC[C@H](F)C1 [Example 546, 6-((R)-1-((S)-3-fluoropyrrolidin-1-yl)propyl)-2-(3-(3-((4-methyl-4H-1,2,4-triazol-3-yl)methyl)oxetan-3-yl)phenyl)-4-(trifluoromethyl)isoindolin-1-one]
- IC50 [1]: ≤ 100 nM
- fold induction at 1 µM [2]: > 1
- fold induction at 0.3 µM [3]: 1.51 to 1.75
- fold induction at 1 µM [3]: 1.51 to 1.75
- fold induction at 1 µM [4]: > 0.201
- IC50 [5]: < 100 nM
- fold induction at 0.3 µM [6]: > 7.5
- fold induction at 1 µM [6]: > 7.5

SMILES: Cn1cnnc1CC1(c2cccc(N3Cc4c(cc(C(F)(F)CO)cc4C(F)(F)F)C3=O)c2)COC1 [Example 547, 6-(1,1-difluoro-2-hydroxyethyl)-2-(3-(3-((4-methyl-4H-1,2,4-triazol-3-yl)methyl)oxetan-3-yl)phenyl)-4-(trifluoromethyl)isoindolin-1-one]
- IC50 [1]: ≤ 100 nM
- fold induction at 1 µM [2]: 0.801 to 1
- fold induction at 0.3 µM [3]: 1.01 to 1.3
- fold induction at 1 µM [3]: 1.01 to 1.3
- fold induction at 1 µM [4]: 0.101 to 0.15
- IC50 [5]: < 100 nM
- fold induction at 0.3 µM [6]: 1.01 to 2.5
- fold induction at 1 µM [6]: 1.01 to 2.5

SMILES: CN(c1cc2c(c(C(F)(F)F)c1)CN(c1cccc([C@@](C)(F)C(F)(F)c3nncn3C)c1)C2=O)[C@@H]1CNC[C@@H]1F [Example 548, 6-(((3R,4S)-4-fluoropyrrolidin-3-yl)(methyl)amino)-2-(3-((R)-1,1,2-trifluoro-1-(4-methyl-4H-1,2,4-triazol-3-yl)propan-2-yl)phenyl)-4-(trifluoro-methyl)isoindolin-1-one]
- IC50 [1]: ≤ 300 nM
- fold induction at 1 µM [2]: 0.601 to 0.8
- fold induction at 0.3 µM [3]: 1.01 to 1.3
- fold induction at 1 µM [3]: 1.01 to 1.3
- fold induction at 1 µM [4]: 0.101 to 0.15
- IC50 [5]: 100 to 300 nM
- fold induction at 0.3 µM [6]: 1.01 to 2.5
- fold induction at 1 µM [6]: 2.51 to 5

SMILES: CN(c1cc2c(c(C(F)(F)F)c1)CN(c1cccc([C@@](C)(F)C(F)(F)c3nncn3C)c1)C2=O)[C@H]1CNC[C@H]1F [Example 549, 6-(((3S,4R)-4-fluoropyrrolidin-3-yl)(methyl)amino)-2-(3-((R)-1,1,2-trifluoro-1-(4-methyl-4H-1,2,4-triazol-3-yl)propan-2-yl)phenyl)-4-(trifluoromethyl)iso-indolin-1-one]
- IC50 [1]: ≤ 300 nM
- fold induction at 1 µM [2]: 0.801 to 1
- fold induction at 0.3 µM [3]: 1.01 to 1.3
- fold induction at 1 µM [3]: 1.31 to 1.5
- fold induction at 1 µM [4]: 0.151 to 0.2
- IC50 [5]: 100 to 300 nM
- fold induction at 0.3 µM [6]: 1.01 to 2.5
- fold induction at 1 µM [6]: 2.51 to 5

SMILES: C[C@@H](c1cc2c(c(C(F)(F)F)c1)CN(c1cccc(C3(Cc4nncn4C)COC3)c1)C2=O)N1CCC2(CC1)CC2 [Example 558a, (S)-6-(1-(6-azaspiro[2.5]octan-6-yl)ethyl)-2-(3-(3-((4-methyl-4H-1,2,4-triazol-3-yl)methyl)oxetan-3-yl)phenyl)-4-(trifluoromethyl)isoindolin-1-one]
- IC50 [1]: ≤ 100 nM
- fold induction at 1 µM [2]: > 1
- fold induction at 0.3 µM [3]: 1.01 to 1.3
- fold induction at 1 µM [3]: 1.01 to 1.3
- fold induction at 1 µM [4]: > 0.201
- IC50 [5]: < 100 nM
- fold induction at 0.3 µM [6]: > 7.5
- fold induction at 1 µM [6]: > 7.5
